US5476850A, “Amino-substituted benzenesulfonylureas and -thioureas and their use as pharmaceuticals” (Hoechst Aktiengesellschaft, priority 1993, dated 1995)

How the values were obtained:
RINm5F cells = experiment: Membrane potential on isolated β-cells (whole cell patch clamp, RINm5F cells); assay type: cell-based; conditions: compound 10^-6 mol per liter; diazoxide 100 μmol in bath; 34°±1° C.; blank cell potential -76
Source text: (2) Membrane potential on isolated β-cells:
The mechanism of action of the hypoglycemic sulfonylureas is elucidated in rough terms. The target organ is the β-cells of the pancreas where increased secretion of the hypoglycemic hormone insulin occurs. The release of insulin is controlled by means of the cell membrane potential. Glibenclamide causes a depolarization of the cell membrane, which promotes insulin release via an increased influx of calcium ions. The extent of this depolarization of the cell membrane ΔU was determined on RINm5F cells, a pancreas tumor cell line, for a few of the compounds according to the invention. The potency of a compound in this model predicts the extent of the hypoglycemic potential of this compound.
RINm5F cells were cultured at 37° C. in RPMI 1640 culture medium (Flow), to which 11 mmol of glucose, 10% (vol/vol) fetal calf-serum, 2 mmol of glutamine and 50 μg/ml of gentamycin were added. […]
Isolated RINm5F cells were transferred to a Plexiglas chamber on an inverted microscope which is equipped with a differential interference contrast optical system. […] In this whole cell configuration, the cell potential was recorded with the aid of a patch clamp amplifier (L/M EPC 7) and measured by applying a voltage ramp to the whole cell current. […]

[1] = test system: papillary muscle of the guinea-pig; experiment: Action potential duration on the papillary muscle of the guinea-pig (microelectrode technique; APD shortened by 2-deoxyglucose or rilmakalim); assay type: cell-based; conditions: test substance 2.2·10^-5 mol per liter, 30 minutes after addition, control <40 ms; for APD95 -rilmakalim: action potential reduced by 1 μM rilmakalim (Hoe 234); for APD95 -DEO: action potential reduced by 2-deoxyglucose (DEO)
Source text: (1) Action potential duration on the papillary muscle of the guinea-pig:
ATP deficiency states, as are observed during ischemia in the cardiac muscle cell, lead to a reduction of the action potential duration. They count as one of the causes of so-called reentry arrhythmias, which can cause sudden heart death. The opening of ATP-sensitive K channels by the reduction of ATP counts as causal here.
To measure the action potential, a standard microelectrode technique is employed. For this, guinea-pigs of both sexes are killed by a blow to the head, the hearts are removed, and the papillary muscles are separated out and suspended in an organ bath. The organ bath is irrigated with Ringer solution (0.9% NaCl, 0.048% KCl, 0,024% CaCl2, 0.02% NaHCO3 and 0.1% glucose) and aerated with a mixture of 95% oxygen and 5% carbon dioxide at a temperature of 36° C. The muscle is stimulated by means of an electrode using square-wave impulses of 1 V and 1 ms duration and a frequency of 2 Hz. The action potential is derived and recorded by means of a glass microelectrode inserted intracellularly, which is filled with […] KCl solution. The substances to be tested were added to the Ringer solution in a concentration of 2.2·10^-5 mol per liter. The action potential is shown amplified on an oscilloscope using an amplifier from Hugo Sachs. The duration of the action potential is determined at a degree of repolarization of 95% (APD95). Action potential reductions are produced either by addition of a 1 μM solution of the potassium channel opener rilmakalim (Hoe 234) [W. Linz, E. Klaus, U. Albus, R. H. A. Becker, D. Mania, H. C. Englert, B. A. Schokens, Arzneimittelforschung/Drug Research, Volume 42 (II), 1992, pp. 1180 to 1185] or by addition of 2-deoxyglucose (DEO). In experimental physiology, ATP deficiency states are produced by 2-deoxyglucose by blockade of glucose metabolism. The action potential-reducing effect of these substances was prevented or reduced by the simultaneous addition of the test substances. Test substances were added to the bath solution as stock solutions in propanediol. The values indicated relate to measurements 30 minutes after addition. The APD95 in the presence of […] or rilmakalim and in the absence of the test substance counts as the control.

Q: With `CNC(=S)NS(=O)(=O)c1cc(CCNC(=O)c2cc(Cl)ccc2OC)ccc1N1CCOCC1` [Example 1, 2-Methoxy-5-chloro-N-{5-[1-sulfonylamino-N-(methylaminothiocarbonyl)-2-(4-morpholino)phenyl]ethyl}benzamide] as the compound, how does the “ΔU (depolarization of the cell membrane)” value (RINm5F cells) read?
A: Its value is 14 mv.

Q: And the APD95 -rilmakalim [1]?
A: The APD95 -rilmakalim was 121 ± 14 ms.

Q: And the “APD95 -DEO” value [1]?
A: Its value is 110 ms.

Q: How did the “ΔU (depolarization of the cell membrane)” value (RINm5F cells) turn out when `CNC(=S)NS(=O)(=O)c1cc(CCNC(=O)c2cc(Cl)ccc2OC)ccc1N1CCCCC1` [Example 2, 2-Methoxy-5-chloro-N-{5-[1-sulfonylamino-N-(methylaminothiocarbonyl)-2-(1-piperidyl)phenyl]ethyl}benzamide] was run?
A: Its value is 19 mv.

Q: And the APD95 -rilmakalim [1]?
A: Its APD95 -rilmakalim is 153 ± 15 ms.

Q: What about the “APD95 -DEO” value [1] of the same compound?
A: Its value is 105 ± 11 ms.
